Ki data for 1 molecule are collected here from BindingDB's records for doi:10.1038/sj.bjp.0705908 (Abbott Laboratories, 2004).

A word on the pKi: it is −log10 of the Ki, conventionally taken in molar units.

pKi: −log10 of the molar value.

The target in this test is T1, Calcium-activated potassium channel subunit beta (Sus scrofa, UniProt C0KY85).
T1 sequence (C0KY85 whole entry): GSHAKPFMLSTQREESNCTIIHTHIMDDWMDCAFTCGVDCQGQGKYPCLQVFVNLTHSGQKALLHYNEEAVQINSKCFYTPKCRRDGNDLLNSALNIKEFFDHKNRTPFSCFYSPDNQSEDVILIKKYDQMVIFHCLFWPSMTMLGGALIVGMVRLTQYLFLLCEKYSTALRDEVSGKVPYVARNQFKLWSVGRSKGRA

Take `CCC(C)(C)NC(=NC#N)Nc1cccnc1` [NSC_43345]: the pKi is 7.97.
